Reference: patent publication US20150087627A1, “COMBINATION OF KINASE INHIBITORS AND USES THEREOF” (Intellikine LLC, priority 2011, published 2015)
Like-named read-outs stand apart in the source and are kept apart here.

Assays:
Assay type in all cases: biochemical
PI3K α (p110α/p85α) = target: T1, PI3K α (p110α/p85α) (Homo sapiens, UniProt P42336); assay: PI 3-Kinase (human) HTRF assay, PI3K α; conditions: read-out: PI3K α IC50
T1 construct: purchased Upstate / Millipore Corporation

PI3K δ = target: T2, PI3K δ (Homo sapiens, UniProt O00329); assay: PI 3-Kinase (human) HTRF assay, PI3K δ
T2 construct: purchased Upstate / Millipore Corporation
T2 sequence (O00329 whole entry): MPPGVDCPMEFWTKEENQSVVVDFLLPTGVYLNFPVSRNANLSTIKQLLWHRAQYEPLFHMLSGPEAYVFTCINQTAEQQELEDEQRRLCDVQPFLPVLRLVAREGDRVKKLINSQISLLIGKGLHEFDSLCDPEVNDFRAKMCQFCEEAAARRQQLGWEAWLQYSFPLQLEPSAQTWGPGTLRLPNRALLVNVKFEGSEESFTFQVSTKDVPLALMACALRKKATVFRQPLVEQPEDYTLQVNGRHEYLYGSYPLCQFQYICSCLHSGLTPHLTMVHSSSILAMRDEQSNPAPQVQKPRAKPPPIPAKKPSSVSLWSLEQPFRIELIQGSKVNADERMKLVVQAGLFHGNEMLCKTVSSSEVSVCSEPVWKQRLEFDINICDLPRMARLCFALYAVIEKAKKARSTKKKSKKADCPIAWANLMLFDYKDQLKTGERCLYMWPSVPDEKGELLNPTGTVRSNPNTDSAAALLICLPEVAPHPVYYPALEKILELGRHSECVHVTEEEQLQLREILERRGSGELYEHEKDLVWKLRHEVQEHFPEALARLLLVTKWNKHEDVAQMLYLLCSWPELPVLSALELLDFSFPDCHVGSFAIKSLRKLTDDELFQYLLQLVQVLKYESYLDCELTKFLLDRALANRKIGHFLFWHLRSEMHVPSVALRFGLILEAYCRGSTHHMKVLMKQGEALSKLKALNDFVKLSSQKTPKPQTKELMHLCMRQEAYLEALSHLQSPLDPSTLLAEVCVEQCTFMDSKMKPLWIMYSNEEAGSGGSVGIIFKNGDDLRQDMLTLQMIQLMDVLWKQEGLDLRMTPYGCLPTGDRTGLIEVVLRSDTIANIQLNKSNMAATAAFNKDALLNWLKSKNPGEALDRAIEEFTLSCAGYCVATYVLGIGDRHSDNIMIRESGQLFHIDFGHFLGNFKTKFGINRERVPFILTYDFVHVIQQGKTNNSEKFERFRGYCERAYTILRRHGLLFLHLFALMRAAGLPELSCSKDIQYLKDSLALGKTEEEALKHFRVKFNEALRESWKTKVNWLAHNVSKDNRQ
T2 sequence (P27986 whole entry partner): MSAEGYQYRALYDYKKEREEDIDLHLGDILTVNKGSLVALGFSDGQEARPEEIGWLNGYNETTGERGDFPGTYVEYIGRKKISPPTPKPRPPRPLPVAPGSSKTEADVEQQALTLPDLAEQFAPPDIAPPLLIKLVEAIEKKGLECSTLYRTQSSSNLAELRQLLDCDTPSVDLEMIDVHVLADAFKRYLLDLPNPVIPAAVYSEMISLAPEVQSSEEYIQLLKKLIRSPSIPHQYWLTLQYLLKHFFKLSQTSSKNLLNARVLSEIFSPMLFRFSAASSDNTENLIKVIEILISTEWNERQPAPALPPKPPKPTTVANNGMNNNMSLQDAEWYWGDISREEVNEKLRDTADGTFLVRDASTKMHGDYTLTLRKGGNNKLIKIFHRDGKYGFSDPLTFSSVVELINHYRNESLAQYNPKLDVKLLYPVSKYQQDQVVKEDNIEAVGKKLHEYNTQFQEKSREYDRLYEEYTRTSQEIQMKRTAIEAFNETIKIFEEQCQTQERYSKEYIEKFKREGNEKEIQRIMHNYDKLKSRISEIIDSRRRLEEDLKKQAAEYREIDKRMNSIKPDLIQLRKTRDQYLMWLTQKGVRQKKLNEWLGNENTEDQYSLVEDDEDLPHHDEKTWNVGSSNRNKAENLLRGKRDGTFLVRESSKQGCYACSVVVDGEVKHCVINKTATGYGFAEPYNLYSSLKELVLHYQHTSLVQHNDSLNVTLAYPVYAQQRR
Method: (§1) Briefly, the assay is a time resolved FRET assay that indirectly measures PIP3 product formed by the activity of a PI3-K. The kinase reaction is performed in a microtiter plate (e.g., a 384 well microtiter plate). The total reaction volume is approximately 20 ul per well. In the first step, each well receives 2 ul of test compound in 20% dimethylsulphoxide resulting in a 2% DMSO final concentration. […] The plate is sealed and incubated for 15 minutes at room temperature. […] The plate is sealed and incubated for 1 hour at room temperature. The reaction is stopped by adding 5 ul of Stop Solution per well and then 5 ul of Detection Mix is added per well. The plate is sealed, incubated for 1 hour at room temperature, and then read on an appropriate plate reader. Data is analyzed and IC50s are generated using GraphPad Prism 5.

PI3K β (p110β/p85α) = target: T3, PI3K β (p110β/p85α) (Homo sapiens, UniProt P42338); assay: PI 3-Kinase (human) HTRF assay, PI3K β
T3 construct: purchased Upstate / Millipore Corporation
T3 sequence (P42338 whole entry): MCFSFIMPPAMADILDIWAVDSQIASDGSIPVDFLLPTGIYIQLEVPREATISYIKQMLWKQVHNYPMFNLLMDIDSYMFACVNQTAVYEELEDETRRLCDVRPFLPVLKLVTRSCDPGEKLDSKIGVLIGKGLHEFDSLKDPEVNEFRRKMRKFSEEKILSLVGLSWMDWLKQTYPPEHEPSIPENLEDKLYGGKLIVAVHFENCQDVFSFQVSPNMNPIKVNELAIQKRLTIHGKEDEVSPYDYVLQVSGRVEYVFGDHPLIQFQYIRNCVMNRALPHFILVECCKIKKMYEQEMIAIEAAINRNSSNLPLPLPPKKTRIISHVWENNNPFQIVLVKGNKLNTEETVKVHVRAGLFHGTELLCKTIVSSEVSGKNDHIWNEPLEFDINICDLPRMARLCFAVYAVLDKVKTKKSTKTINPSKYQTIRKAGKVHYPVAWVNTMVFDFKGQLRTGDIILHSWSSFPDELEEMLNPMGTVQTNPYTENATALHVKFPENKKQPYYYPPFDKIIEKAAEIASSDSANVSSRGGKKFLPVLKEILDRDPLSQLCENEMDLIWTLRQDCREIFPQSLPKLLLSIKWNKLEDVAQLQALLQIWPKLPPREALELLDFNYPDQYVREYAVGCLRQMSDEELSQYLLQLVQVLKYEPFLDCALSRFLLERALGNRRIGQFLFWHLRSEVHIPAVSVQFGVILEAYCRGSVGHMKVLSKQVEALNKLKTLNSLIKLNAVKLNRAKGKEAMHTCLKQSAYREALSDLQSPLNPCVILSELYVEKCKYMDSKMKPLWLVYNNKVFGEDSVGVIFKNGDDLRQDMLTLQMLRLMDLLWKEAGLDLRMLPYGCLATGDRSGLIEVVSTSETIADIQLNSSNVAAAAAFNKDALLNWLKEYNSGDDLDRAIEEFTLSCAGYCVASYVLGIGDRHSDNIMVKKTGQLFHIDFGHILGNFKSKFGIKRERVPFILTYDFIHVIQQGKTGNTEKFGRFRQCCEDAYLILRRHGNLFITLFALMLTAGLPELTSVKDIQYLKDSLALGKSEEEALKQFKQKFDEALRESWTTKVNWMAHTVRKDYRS
T3 sequence (P27986 whole entry partner): as the sequence (P27986 whole entry partner) above

PI3K γ (p110γ) = target: T4, PI3K γ (p110γ) (Homo sapiens, UniProt P48736); assay: PI 3-Kinase (human) HTRF assay, PI3K γ
T4 construct: purchased Upstate / Millipore Corporation
T4 sequence (P48736 whole entry): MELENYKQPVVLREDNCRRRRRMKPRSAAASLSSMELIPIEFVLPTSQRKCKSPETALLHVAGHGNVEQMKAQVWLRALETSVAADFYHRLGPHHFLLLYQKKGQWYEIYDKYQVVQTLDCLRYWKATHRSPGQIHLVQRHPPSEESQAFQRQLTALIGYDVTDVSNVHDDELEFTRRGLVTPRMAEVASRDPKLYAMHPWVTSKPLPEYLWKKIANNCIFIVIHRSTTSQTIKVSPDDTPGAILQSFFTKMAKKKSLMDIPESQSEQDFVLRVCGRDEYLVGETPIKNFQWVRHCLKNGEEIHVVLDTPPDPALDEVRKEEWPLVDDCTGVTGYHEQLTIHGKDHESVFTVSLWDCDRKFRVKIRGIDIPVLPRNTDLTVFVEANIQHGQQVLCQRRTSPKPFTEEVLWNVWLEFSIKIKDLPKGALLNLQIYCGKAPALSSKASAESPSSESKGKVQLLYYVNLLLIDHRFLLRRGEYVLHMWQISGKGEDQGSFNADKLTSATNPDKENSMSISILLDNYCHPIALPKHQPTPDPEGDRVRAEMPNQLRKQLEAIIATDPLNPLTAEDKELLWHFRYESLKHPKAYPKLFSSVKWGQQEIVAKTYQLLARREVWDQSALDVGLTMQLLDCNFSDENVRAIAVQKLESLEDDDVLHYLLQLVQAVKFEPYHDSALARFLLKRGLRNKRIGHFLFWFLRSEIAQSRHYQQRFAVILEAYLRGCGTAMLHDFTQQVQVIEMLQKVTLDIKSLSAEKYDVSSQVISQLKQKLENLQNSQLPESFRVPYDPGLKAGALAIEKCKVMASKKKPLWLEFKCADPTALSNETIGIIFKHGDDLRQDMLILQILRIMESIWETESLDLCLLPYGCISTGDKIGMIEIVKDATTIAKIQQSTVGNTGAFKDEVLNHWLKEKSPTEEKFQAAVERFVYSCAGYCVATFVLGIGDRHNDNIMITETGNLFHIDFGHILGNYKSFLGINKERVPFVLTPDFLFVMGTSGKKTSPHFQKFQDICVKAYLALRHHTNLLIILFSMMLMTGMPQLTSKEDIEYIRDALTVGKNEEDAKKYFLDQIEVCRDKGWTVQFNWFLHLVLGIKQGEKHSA
Method: as §1

T1 sequence (P42336 whole entry): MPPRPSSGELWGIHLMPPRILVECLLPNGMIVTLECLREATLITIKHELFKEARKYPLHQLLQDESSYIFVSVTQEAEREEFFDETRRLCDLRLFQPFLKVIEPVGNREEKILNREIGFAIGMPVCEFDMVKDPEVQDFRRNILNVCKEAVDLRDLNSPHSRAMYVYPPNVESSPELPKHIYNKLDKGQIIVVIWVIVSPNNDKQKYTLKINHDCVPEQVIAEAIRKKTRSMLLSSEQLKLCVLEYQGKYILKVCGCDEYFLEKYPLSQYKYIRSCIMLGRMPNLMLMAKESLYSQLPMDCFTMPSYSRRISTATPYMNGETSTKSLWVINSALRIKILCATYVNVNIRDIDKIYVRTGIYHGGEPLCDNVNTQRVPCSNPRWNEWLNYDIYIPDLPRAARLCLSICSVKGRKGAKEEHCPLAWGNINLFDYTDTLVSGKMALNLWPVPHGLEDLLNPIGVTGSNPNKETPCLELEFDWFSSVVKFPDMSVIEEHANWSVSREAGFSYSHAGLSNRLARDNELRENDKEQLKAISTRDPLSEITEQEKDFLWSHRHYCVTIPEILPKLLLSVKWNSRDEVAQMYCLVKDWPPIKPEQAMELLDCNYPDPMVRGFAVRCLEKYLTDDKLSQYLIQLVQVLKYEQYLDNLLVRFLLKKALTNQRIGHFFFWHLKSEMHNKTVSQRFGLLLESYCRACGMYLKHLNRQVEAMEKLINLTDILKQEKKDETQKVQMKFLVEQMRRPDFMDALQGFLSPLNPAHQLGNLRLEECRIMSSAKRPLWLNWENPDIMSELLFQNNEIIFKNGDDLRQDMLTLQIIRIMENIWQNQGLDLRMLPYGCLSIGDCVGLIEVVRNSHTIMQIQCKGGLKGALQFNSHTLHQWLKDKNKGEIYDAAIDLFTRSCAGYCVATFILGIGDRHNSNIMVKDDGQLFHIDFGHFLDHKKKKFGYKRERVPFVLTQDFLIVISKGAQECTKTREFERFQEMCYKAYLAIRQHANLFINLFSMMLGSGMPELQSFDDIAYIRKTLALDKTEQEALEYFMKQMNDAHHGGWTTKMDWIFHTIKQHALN
T1 sequence (P27986 whole entry partner): as the sequence (P27986 whole entry partner) above

| Structure (SMILES) | IC50 (PI3K α (p110α/p85α)) [µM] | IC50 (PI3K δ; read-out: PI3K δ IC50) [µM] | IC50 (PI3K β (p110β/p85α); read-out: PI3K β IC50) [nM] | IC50 (PI3K γ (p110γ); read-out: PI3K γ IC50) [nM] | IC50 (PI3K γ (p110γ); PI3K γ IC50 (nM)) [nM] | IC50 (PI3K δ) [µM] | IC50 (PI3K β (p110β/p85α); PI3K β IC50 (nM)) [nM] |
| --- | --- | --- | --- | --- | --- | --- | --- |
| O=C(c1cnc2ccc(-c3cccc(NS(=O)(=O)c4ccc(F)cc4F)c3)cn12)N1CCOCC1 [Compound 454] | < 10 | < 10 | > 10000 | < 10000 |  |  |  |
| COc1ccc(-c2ccc3ncc(C(=O)N4CCOCC4)n3c2)cc1NS(C)(=O)=O [Compound 456] | > 10 | > 10 | > 10000 | > 10000 |  |  |  |
| O=C(c1cnc2ccc(-c3cnc(Cl)c(NS(=O)(=O)c4ccc(F)cc4)c3)cn12)N1CCOCC1 [Compound 457] | < 0.1 | < 0.1 | < 100 | < 100 |  |  |  |
| O=C(c1cnc2ccc(-c3cnc(Cl)c(NS(=O)(=O)c4cccc(F)c4)c3)cn12)N1CCOCC1 [Compound 458] | < 0.1 | < 0.1 | < 100 | < 100 |  |  |  |
| CS(=O)(=O)Nc1cc(-c2ccc3ncc(C(=O)N4CCOCC4)n3c2)ccc1Cl [Compound 460] | < 10 | > 10 | > 10000 | > 10000 |  |  |  |
| CO[C@H]1CCN(C(=O)c2cnc3ccc(-c4ccc5oc(N)nc5c4)cn23)C1 [Compound 463] | < 0.1 | < 10 | < 10000 | < 1000 |  |  |  |
| CO[C@@H]1CCN(C(=O)c2cnc3ccc(-c4ccc5oc(N)nc5c4)cn23)C1 [Compound 464] | < 0.1 | > 10 | > 10000 | < 1000 |  |  |  |
| Nc1nc2cc(-c3ccc4ncc(C(=O)N5CC[C@H](N6CCOCC6)C5)n4c3)ccc2o1 [Compound 465] | < 0.1 | > 10 | > 10000 | < 1000 |  |  |  |
| Nc1nc2cc(-c3ccc4ncc(C(=O)N5CC[C@@H](N6CCOCC6)C5)n4c3)ccc2o1 [Compound 466] | < 1 | < 10 | < 10000 | < 1000 |  |  |  |
| COC1CN(C(=O)c2cnc3ccc(-c4ccc5oc(N)nc5c4)cn23)C1 [Compound 467] | < 0.1 | < 10 | < 10000 | < 100 |  |  |  |
| Nc1nc2cc(-c3ccc4ncc(C(=O)N5CC(F)C5)n4c3)ccc2o1 [Compound 468] | < 0.1 | > 10 | < 10000 | < 100 |  |  |  |
| Nc1nc2cc(-c3ccc4ncc(C(=O)N5CC(N6CC[C@H](O)C6)C5)n4c3)ccc2o1 [Compound 469] | < 0.1 | < 10 | < 10000 | < 1000 |  |  |  |
| Nc1nc2cc(-c3ccc4ncc(C(=O)N5CCC(F)(F)C5)n4c3)ccc2o1 [Compound 471] | < 0.1 | > 10 | > 10000 | < 100 |  |  |  |
| Nc1nc2cc(-c3ccc4ncc(C(=O)N5CC(F)(F)C5)n4c3)ccc2o1 [Compound 473] | < 0.1 | > 10 | > 10000 | < 100 |  |  |  |
| Nc1nsc2c(-c3ccc4ncc(C(=O)N5CCOCC5)n4c3)cccc12 [Compound 474] | < 10 | > 10 | > 10000 | > 10000 |  |  |  |
| Nc1nc2cc(-c3ccc4ncc(C(=O)N5CC[C@H](F)C5)n4c3)ccc2o1 [Compound 476] | < 0.1 | > 10 | > 10000 | < 100 |  |  |  |
| Nc1nc2cc(-c3ccc4ncc(C(=O)N5CC(n6cccn6)C5)n4c3)ccc2o1 [Compound 479] | < 0.1 | < 10 | > 10000 | < 1000 |  |  |  |
| Nc1nc2cc(-c3ccc4ncc(C(=O)N5C6CCC5COC6)n4c3)ccc2o1 [Compound 480] | < 0.1 | < 10 | > 10000 |  | < 1000 |  |  |
| C[C@H]1COCCN1C(=O)c1cnc2ccc(-c3ccc4oc(N)nc4c3)cn12 [Compound 483] | < 0.1 | > 10 | < 10000 | < 10000 |  |  |  |
| Nc1nc2cccc(-c3ccc4ncc(C(=O)N5CCOCC5)n4c3)c2o1 [Compound 484] | < 1 | > 10 | > 10000 | > 10000 |  |  |  |
| Nc1nc2cccc(-c3ccc4ncc(C(=O)N5CCOCC5)n4c3)c2s1 [Compound 485] | < 10 | > 10 | > 10000 | > 10000 |  |  |  |
| CNc1noc2cc(-c3ccc4ncc(C(=O)N5CCOCC5)n4c3)ccc12 [Compound 486] | < 10 | > 10 | > 10000 | < 10000 |  |  |  |
| Nc1noc2cc(-c3ccc4ncc(C(=O)N5CCOCC5)n4c3)ccc12 [Compound 488] | > 10 | > 10 | > 10000 | > 10000 |  |  |  |
| Nc1nsc2cc(-c3ccc4ncc(C(=O)N5CCOCC5)n4c3)ccc12 [Compound 489] | < 10 | > 10 | > 10000 | > 10000 |  |  |  |
| Nc1noc2c(-c3ccc4ncc(C(=O)N5CCOCC5)n4c3)cccc12 [Compound 491] | > 10 | > 10 | > 10000 | > 10000 |  |  |  |

| Structure (SMILES) | IC50 (PI3K α (p110α/p85α)) [µM] | IC50 (PI3K δ; read-out: PI3K δ IC50) [µM] | IC50 (PI3K β (p110β/p85α); read-out: PI3K β IC50) [nM] | IC50 (PI3K γ (p110γ); read-out: PI3K γ IC50) [nM] | IC50 (PI3K γ (p110γ); PI3K γ IC50 (nM)) [nM] | IC50 (PI3K δ) [µM] | IC50 (PI3K β (p110β/p85α); PI3K β IC50 (nM)) [nM] |
| --- | --- | --- | --- | --- | --- | --- | --- |
| Nc1nc2cc(-c3ccc4ncc(C(=O)N5CCn6cncc6C5)n4c3)ccc2o1 [Compound 493] | < 0.1 | > 10 | < 1000 | < 10000 |  |  |  |
| Nc1nc2cc(-c3ccc4ncc(C(=O)N5CC6(C5)OCCO6)n4c3)ccc2o1 [Compound 494] | < 0.1 |  |  | < 1000 |  | > 10 | < 10000 |
| C[C@@H]1COCCN1C(=O)c1cnc2ccc(-c3ccc4oc(N)nc4c3)cn12 [Compound 495] | < 0.1 | > 10 | < 10000 | < 1000 |  |  |  |
| CNc1nsc2cc(-c3ccc4ncc(C(=O)N5CCOCC5)n4c3)ccc12 [Compound 497] | > 10 | > 10 | > 10000 | > 10000 |  |  |  |
| Nc1nc2cc(-c3ccc4ncc(C(=O)N5CCC(N6CC(F)(F)C6)C5)n4c3)ccc2o1 (stereo not shown) [Compound 498] | < 1 | > 10 | > 10000 | < 10000 |  |  |  |
| Nc1nc2cc(-c3ccc4ncc(C(=O)N5CCC6(C5)OCCO6)n4c3)ccc2o1 [Compound 499] | < 1 | > 10 | > 10000 | < 10000 |  |  |  |
| Nc1nc2cc(-c3ccc4ncc(C(=O)N5CCC(N6CCC(F)(F)C6)C5)n4c3)ccc2o1 (stereo not shown) [Compound 500] | < 1 | < 10 | > 10000 | < 10000 |  |  |  |
| Nc1nc2cc(-c3ccc4ncc(C(=O)N5CCC(F)(F)CC5)n4c3)ccc2o1 [Compound 501] | < 1 | > 10 | > 10000 | < 10000 |  |  |  |
| Nc1nc2cc(-c3ccc4ncc(C(=O)N5CC(N6CCC(F)(F)C6)C5)n4c3)ccc2o1 [Compound 502] | < 0.1 | < 10 | > 10000 | < 1000 |  |  |  |
| Nc1nc2cc(-c3ccc4ncc(C(=O)N5CCC(F)CC5)n4c3)ccc2o1 [Compound 503] | < 1 | > 10 | > 10000 | < 100 |  |  |  |
| Nc1nc2cc(-c3ccc4ncc(C(=O)N5CC6CCC(C5)O6)n4c3)ccc2o1 [Compound 504] | < 1 | > 10 | < 10000 | < 100 |  |  |  |
| O=C(c1cnc2ccc(-c3ccc4c(Nc5ccccc5)nsc4c3)cn12)N1CCOCC1 [Compound 505] | > 10 | > 10 | > 10000 | > 10000 |  |  |  |
| O=C(c1cnc2ccc(-c3cncc4[nH]ncc34)cn12)N1CCOCC1 [Compound 506] | < 0.1 | > 10 | > 10000 | > 10000 |  |  |  |
| Cc1cc2ncc(C(=O)N3CCOCC3)n2cc1-c1ccc2oc(N)nc2c1 [Compound 507] | > 10 | > 10 | > 10000 | > 10000 |  |  |  |
| C[C@@H]1CN(C2CN(C(=O)c3cnc4ccc(-c5ccc6oc(N)nc6c5)cn34)C2)CCN1C [Compound 508] | < 0.1 | < 1 | < 10000 | < 10000 |  |  |  |
| O=C(c1cnc2ccc(-c3ccc4c(Nc5ccccc5)noc4c3)cn12)N1CCOCC1 [Compound 509] | > 10 | > 10 | > 10000 | > 10000 |  |  |  |
| C[C@H]1CN(C2CN(C(=O)c3cnc4ccc(-c5ccc6oc(N)nc6c5)cn34)C2)CCN1 [Compound 510] | < 0.1 | < 1 | < 10000 | < 10000 |  |  |  |
| CC1(C)CN(C(=O)c2cnc3ccc(-c4ccc5oc(N)nc5c4)cn23)CCO1 [Compound 513] | < 1 | > 10 | > 10000 | < 10000 |  |  |  |
| CC1(C)CN(C2CN(C(=O)c3cnc4ccc(-c5ccc6oc(N)nc6c5)cn34)C2)CCN1 [Compound 515] | < 0.1 | < 0.1 | < 10000 | < 1000 |  |  |  |
| O=C(c1cnc2ccc(-c3cnc(Cl)c4[nH]ncc34)cn12)N1CCOCC1 [Compound 516] | < 1 | > 10 | > 10000 | > 10000 |  |  |  |
| COc1ncc(-c2ccc3ncc(C(=O)N4CCOCC4)n3c2)c2cn[nH]c12 [Compound 517] | < 1 | < 10 | > 10000 | < 10000 |  |  |  |
| CN1CCN(n2cnc3ccc(-c4ccc5oc(N)nc5c4)cc3c2=O)CC1 [Compound 518] | < 1 | > 10 | > 10000 | > 10000 |  |  |  |
| CC(C)N1CCC(n2cnc3ccc(-c4cncc(NS(=O)(=O)c5ccc(F)cc5F)c4)cc3c2=O)CC1 [Compound 519] | < 1 | < 10 | < 10000 | < 1000 |  |  |  |
| CC(C)N1CCC(n2cnc3ccc(-c4cncc(NS(C)(=O)=O)c4)cc3c2=O)CC1 [Compound 520] | > 10 | > 10 | > 10000 | > 10000 |  |  |  |
